Laboratory results published in patent US11708373B2, “5-alkylquinazoline derivative, method of preparing the same, and method of using the same” (Hefei University of Technology, priority 2020, dated 2023).

System: breast cancer cells (MCF)
Test: MCF test of breast cancer cells
Assay type: cell-based
Source text: Therefore, the compounds of the present application are expected to be useful in the treatment of various cancers, such as cervical cancer.

**Q.** With `COC(=O)C1=NC2(Nc3ccc(C)cc31)C(=O)Nc1ccc(C)cc12` (stereo not shown) [Compound II] as the compound, how does the “ED50, inhibitory activity in the MCF test of breast cancer cells” value read?
**A.** < 10.0 µg/mL
